# Reference: ChEMBL document CHEMBL4507292 (2021)
# Experiments:
# [1] = molecular target: Serine/threonine-protein kinase PAK 5 (Homo sapiens) (UniProt Q9P286); conditions: Compound concentration 1000.0 nM
# [2] = molecular target: Calcium-dependent protein kinase 1 (Plasmodium falciparum) (UniProt P62344); conditions: Compound concentration 1000.0 nM
# [3] = tested on: Serine/threonine-protein kinase B-raf (Homo sapiens), P15056 [V600E]; conditions: Compound concentration 1000.0 nM
# [4] = molecular target: Transient receptor potential cation channel subfamily M member 6 (Homo sapiens) (UniProt Q9BX84); conditions: Compound concentration 1000.0 nM
# Chain of Transient receptor potential cation channel subfamily M member 6 (Homo sapiens) (Q9BX84 whole entry): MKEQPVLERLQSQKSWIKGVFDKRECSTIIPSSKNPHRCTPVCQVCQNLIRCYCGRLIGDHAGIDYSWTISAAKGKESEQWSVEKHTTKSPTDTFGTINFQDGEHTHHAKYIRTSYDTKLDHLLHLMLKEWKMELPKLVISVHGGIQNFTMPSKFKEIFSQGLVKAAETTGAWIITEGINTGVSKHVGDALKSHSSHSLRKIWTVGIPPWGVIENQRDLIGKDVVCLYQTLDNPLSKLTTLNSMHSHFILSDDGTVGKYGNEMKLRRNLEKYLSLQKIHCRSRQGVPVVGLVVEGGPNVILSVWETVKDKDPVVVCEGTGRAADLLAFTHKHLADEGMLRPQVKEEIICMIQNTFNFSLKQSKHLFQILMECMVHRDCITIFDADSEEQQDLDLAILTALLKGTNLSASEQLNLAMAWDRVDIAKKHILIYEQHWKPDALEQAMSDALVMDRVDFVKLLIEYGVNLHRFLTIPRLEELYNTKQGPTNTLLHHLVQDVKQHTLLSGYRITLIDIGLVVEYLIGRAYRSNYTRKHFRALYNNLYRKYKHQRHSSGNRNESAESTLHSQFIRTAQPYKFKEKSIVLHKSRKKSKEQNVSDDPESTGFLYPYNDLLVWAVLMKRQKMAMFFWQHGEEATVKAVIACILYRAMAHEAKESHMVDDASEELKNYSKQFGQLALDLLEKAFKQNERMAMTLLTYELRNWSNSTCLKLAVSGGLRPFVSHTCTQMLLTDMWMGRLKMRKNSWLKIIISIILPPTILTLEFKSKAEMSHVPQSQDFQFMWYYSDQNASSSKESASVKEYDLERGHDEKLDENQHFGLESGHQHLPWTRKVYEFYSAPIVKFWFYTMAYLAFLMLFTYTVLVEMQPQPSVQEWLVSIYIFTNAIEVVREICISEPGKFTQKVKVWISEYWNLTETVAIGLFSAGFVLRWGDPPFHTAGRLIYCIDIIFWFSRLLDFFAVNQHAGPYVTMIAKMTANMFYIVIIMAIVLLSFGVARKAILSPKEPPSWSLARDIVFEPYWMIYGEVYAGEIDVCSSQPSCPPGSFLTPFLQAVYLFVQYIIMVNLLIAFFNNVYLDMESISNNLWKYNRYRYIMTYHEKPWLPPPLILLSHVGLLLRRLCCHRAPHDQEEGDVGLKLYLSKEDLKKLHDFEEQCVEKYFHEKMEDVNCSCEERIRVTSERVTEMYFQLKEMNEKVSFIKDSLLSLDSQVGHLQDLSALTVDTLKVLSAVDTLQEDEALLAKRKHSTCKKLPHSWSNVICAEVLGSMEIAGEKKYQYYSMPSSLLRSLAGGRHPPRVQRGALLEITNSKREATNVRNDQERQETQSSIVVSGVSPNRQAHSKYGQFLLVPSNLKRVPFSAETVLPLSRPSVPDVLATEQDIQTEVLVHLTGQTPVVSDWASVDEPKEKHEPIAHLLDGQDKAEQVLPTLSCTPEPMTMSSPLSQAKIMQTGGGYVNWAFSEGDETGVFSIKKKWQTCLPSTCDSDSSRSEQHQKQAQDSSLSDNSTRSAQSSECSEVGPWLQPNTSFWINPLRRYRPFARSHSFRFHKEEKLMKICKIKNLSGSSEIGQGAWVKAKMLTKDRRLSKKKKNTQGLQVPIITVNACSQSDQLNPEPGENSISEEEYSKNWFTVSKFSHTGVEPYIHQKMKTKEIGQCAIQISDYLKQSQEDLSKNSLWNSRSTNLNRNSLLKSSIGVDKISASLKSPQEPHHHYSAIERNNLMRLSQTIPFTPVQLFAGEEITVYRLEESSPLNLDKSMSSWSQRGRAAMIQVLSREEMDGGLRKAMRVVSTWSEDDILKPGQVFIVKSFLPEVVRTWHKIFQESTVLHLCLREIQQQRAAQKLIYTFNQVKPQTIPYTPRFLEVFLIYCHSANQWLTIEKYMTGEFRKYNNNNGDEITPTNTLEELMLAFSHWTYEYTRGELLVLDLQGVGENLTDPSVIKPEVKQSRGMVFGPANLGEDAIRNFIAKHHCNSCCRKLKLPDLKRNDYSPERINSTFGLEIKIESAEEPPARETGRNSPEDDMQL
# [5] = molecular target: Homeodomain-interacting protein kinase 4 (Homo sapiens) (UniProt Q8NE63); conditions: Compound concentration 1000.0 nM
# [6] = molecular target: Phosphatidylinositol 5-phosphate 4-kinase type-2 beta (Homo sapiens) (UniProt P78356); conditions: Compound concentration 1000.0 nM
# [7] = molecular target: 5-hydroxytryptamine receptor 2A (Homo sapiens) (UniProt P28223); conditions: Compound concentration 10.0 uM
# [8] = molecular target: Muscarinic acetylcholine receptor M2 (Homo sapiens) (UniProt P08172); conditions: Compound concentration 10.0 uM
# [9] = molecular target: Non-receptor tyrosine-protein kinase TYK2 (Homo sapiens) (UniProt P29597); conditions: Compound concentration 1000.0 nM
# [10] = molecular target: Tyrosine-protein kinase BTK (Homo sapiens) (UniProt Q06187); conditions: Compound concentration 1000.0 nM
# [11] = tested on: Mast/stem cell growth factor receptor Kit (Homo sapiens), P10721 [A829P]; conditions: Compound concentration 1000.0 nM
# [12] = molecular target: Interleukin-1 receptor-associated kinase 4 (Homo sapiens) (UniProt Q9NWZ3); conditions: Compound concentration 1000.0 nM
# [13] = molecular target: Alpha-1A adrenergic receptor (Homo sapiens) (UniProt P35348); conditions: Compound concentration 10.0 uM
# Chain of Alpha-1A adrenergic receptor (Homo sapiens) (P35348 whole entry): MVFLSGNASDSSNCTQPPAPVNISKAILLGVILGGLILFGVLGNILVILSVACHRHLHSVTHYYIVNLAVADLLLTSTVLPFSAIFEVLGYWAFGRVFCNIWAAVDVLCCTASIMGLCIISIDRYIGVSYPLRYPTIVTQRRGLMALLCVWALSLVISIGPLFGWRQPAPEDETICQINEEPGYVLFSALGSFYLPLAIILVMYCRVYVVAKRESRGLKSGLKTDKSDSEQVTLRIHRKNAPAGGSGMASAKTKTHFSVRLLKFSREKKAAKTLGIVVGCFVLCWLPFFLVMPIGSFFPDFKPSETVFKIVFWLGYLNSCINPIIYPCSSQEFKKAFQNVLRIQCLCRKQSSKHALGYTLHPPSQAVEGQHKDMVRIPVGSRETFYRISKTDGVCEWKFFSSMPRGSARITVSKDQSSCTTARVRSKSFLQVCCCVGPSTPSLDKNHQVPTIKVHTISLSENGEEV
# [14] = tested on: ALK tyrosine kinase receptor (Homo sapiens), Q9UM73 [C1156Y]; conditions: Compound concentration 1000.0 nM
# [15] = molecular target: Testis-specific serine/threonine-protein kinase 1 (Homo sapiens) (UniProt Q9BXA7); conditions: Compound concentration 1000.0 nM
# Chain of Testis-specific serine/threonine-protein kinase 1 (Homo sapiens) (Q9BXA7 whole entry): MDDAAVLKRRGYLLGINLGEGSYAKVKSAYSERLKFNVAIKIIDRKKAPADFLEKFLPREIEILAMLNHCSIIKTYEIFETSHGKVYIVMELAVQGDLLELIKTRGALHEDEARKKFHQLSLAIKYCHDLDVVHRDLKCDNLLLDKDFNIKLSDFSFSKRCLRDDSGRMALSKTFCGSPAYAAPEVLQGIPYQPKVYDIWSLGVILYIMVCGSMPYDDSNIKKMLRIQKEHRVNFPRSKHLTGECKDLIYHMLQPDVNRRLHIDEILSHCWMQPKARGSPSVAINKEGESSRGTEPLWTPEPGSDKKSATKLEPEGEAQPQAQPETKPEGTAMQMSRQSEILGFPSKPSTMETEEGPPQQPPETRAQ
# [16] = molecular target: 5'-AMP-activated protein kinase catalytic subunit alpha-2 (Homo sapiens) (UniProt P54646); conditions: Compound concentration 1000.0 nM
# Chain of 5'-AMP-activated protein kinase catalytic subunit alpha-2 (Homo sapiens) (P54646 whole entry, looked up): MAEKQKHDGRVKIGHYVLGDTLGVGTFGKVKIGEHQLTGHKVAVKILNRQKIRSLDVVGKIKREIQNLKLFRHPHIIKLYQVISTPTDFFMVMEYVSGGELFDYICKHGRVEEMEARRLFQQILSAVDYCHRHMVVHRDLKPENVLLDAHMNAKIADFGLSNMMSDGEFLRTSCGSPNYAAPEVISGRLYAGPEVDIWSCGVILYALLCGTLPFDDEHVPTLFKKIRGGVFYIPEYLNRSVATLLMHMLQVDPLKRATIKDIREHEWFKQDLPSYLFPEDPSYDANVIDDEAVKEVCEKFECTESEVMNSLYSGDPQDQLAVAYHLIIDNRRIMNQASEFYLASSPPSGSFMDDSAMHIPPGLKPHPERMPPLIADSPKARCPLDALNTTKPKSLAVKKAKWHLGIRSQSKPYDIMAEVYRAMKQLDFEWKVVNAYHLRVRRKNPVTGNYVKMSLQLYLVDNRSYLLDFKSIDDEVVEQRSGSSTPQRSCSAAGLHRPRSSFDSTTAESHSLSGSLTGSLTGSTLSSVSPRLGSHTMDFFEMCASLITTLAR
# [17] = molecular target: Non-receptor tyrosine-protein kinase TNK1 (Homo sapiens) (UniProt Q13470); conditions: Compound concentration 1000.0 nM
# [18] = molecular target: Atypical kinase COQ8B, mitochondrial (Homo sapiens) (UniProt Q96D53); conditions: Compound concentration 1000.0 nM
# [19] = molecular target: Mast/stem cell growth factor receptor Kit (Homo sapiens) (UniProt P10721); conditions: Compound concentration 1000.0 nM
# [20] = molecular target: Myosin light chain kinase family member 4 (Homo sapiens) (UniProt Q86YV6); conditions: Compound concentration 1000.0 nM
# [21] = molecular target: Casein kinase I isoform delta (Homo sapiens) (UniProt P48730); conditions: Compound concentration 1000.0 nM
# [22] = molecular target: Casein kinase I isoform gamma-3 (Homo sapiens) (UniProt Q9Y6M4); conditions: Compound concentration 1000.0 nM
# [23] = molecular target: RAC-beta serine/threonine-protein kinase (Homo sapiens) (UniProt P31751); conditions: Compound concentration 1000.0 nM
# Chain of RAC-beta serine/threonine-protein kinase (Homo sapiens) (P31751 whole entry): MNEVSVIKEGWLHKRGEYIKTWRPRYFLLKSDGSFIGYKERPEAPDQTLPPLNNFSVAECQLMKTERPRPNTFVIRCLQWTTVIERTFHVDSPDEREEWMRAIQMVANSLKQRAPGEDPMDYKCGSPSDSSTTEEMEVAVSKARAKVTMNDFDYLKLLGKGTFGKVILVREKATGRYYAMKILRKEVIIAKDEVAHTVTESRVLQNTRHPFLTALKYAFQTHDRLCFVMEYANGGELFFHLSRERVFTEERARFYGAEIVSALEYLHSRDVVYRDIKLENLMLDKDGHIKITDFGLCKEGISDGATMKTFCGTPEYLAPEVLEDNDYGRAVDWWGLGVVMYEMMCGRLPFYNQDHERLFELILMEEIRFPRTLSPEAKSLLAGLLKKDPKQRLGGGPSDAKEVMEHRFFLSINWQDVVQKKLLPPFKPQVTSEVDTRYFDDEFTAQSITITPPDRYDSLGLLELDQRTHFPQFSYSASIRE
# [24] = molecular target: Tyrosine-protein kinase FRK (Homo sapiens) (UniProt P42685); conditions: Compound concentration 1000.0 nM
# [25] = molecular target: Ribosomal protein S6 kinase beta-1 (Homo sapiens) (UniProt P23443); conditions: Compound concentration 1000.0 nM
# [26] = molecular target: Calcium/calmodulin-dependent protein kinase type 1 (Homo sapiens) (UniProt Q14012); conditions: Compound concentration 1000.0 nM
# [27] = molecular target: Calcium/calmodulin-dependent protein kinase type II subunit gamma (Homo sapiens) (UniProt Q13555); conditions: Compound concentration 1000.0 nM
# [28] = molecular target: Tyrosine-protein kinase Mer (Homo sapiens) (UniProt Q12866); conditions: Compound concentration 1000.0 nM
# [29] = molecular target: T1, Alpha-2B adrenergic receptor (Homo sapiens) (UniProt P18089); conditions: Compound concentration 10.0 uM
# T1 sequence (whole entry): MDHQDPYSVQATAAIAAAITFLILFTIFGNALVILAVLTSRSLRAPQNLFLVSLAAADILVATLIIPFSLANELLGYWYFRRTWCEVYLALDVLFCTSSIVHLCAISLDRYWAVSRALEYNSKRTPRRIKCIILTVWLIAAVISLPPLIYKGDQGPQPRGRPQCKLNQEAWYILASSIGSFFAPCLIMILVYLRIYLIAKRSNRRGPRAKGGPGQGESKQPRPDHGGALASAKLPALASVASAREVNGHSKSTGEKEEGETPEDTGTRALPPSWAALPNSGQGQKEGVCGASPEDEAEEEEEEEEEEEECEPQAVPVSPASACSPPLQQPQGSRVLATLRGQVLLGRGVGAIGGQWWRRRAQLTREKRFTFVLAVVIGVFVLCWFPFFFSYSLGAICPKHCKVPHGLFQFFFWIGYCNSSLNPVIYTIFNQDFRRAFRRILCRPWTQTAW
# [30] = molecular target: Dual specificity protein kinase CLK4 (Homo sapiens) (UniProt Q9HAZ1); conditions: Compound concentration 1000.0 nM
# [31] = molecular target: Serine/threonine-protein kinase MRCK beta (Homo sapiens) (UniProt Q9Y5S2); conditions: Compound concentration 1000.0 nM
# [32] = molecular target: Ephrin type-A receptor 3 (Homo sapiens) (UniProt P29320); conditions: Compound concentration 1000.0 nM
# [33] = molecular target: NT-3 growth factor receptor (Homo sapiens) (UniProt Q16288); conditions: Compound concentration 1000.0 nM
# [34] = molecular target: Serine/threonine-protein kinase Nek3 (Homo sapiens) (UniProt P51956); conditions: Compound concentration 1000.0 nM
# [35] = molecular target: Ephrin type-A receptor 2 (Homo sapiens) (UniProt P29317); conditions: Compound concentration 1000.0 nM
# Chain of Ephrin type-A receptor 2 (Homo sapiens) (P29317 whole entry): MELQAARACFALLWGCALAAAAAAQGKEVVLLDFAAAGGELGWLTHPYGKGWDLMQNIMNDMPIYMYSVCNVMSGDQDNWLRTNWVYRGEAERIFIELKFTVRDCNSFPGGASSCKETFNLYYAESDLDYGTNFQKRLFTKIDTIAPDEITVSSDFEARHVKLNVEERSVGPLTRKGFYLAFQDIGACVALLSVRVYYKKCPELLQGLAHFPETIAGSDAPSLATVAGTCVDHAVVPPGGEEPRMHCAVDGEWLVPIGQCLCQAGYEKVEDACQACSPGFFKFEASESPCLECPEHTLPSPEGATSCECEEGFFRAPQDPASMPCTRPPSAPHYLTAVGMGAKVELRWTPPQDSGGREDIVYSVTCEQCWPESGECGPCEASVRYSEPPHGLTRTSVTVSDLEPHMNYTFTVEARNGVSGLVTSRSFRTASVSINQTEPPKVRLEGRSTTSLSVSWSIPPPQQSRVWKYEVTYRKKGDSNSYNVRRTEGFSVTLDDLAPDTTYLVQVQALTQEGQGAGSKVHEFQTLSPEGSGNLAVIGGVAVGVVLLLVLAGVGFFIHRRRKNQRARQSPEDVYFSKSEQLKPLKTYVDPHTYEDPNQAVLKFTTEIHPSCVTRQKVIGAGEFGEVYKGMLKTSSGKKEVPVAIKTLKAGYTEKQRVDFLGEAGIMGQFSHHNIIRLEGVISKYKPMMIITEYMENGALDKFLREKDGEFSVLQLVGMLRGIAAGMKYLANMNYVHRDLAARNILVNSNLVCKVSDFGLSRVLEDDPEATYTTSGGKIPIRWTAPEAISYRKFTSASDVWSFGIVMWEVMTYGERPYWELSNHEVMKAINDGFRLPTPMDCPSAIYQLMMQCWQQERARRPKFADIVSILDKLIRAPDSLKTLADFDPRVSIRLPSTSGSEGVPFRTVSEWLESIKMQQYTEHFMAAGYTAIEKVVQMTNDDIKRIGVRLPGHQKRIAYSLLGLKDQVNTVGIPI
# [36] = molecular target: Homeodomain-interacting protein kinase 1 (Homo sapiens) (UniProt Q86Z02); conditions: Compound concentration 1000.0 nM
# [37] = molecular target: RAC-gamma serine/threonine-protein kinase (Homo sapiens) (UniProt Q9Y243); conditions: Compound concentration 1000.0 nM
# [38] = molecular target: Citron Rho-interacting kinase (Homo sapiens) (UniProt O14578); conditions: Compound concentration 1000.0 nM
SMILES,residual activity [1] [%],residual activity [2] [%],residual activity [3] [%],residual activity [4] [%],residual activity [5] [%],residual activity [6] [%],inhibition [7] [%],inhibition [8] [%],residual activity [9] [%],residual activity [10] [%],residual activity [11] [%],residual activity [12] [%],inhibition [13] [%],residual activity [14] [%],residual activity [15] [%],residual activity [16] [%],residual activity [17] [%],residual activity [18] [%],residual activity [19] [%],residual activity [20] [%],other results
O=C(O)c1cc(-c2ccc(C3CCNCC3)cc2)c2ccc(-c3ccc(C(F)(F)F)cc3)cc2c1 [PPTN],100,100,100,100,100,91,29.1,10.9,100,96,100,100,46.7,100,100,100,100,100,99,94,residual activity [21]: 100%; residual activity [22]: 100%; residual activity [23]: 95%; residual activity [24]: 100%; residual activity [25]: 100%; residual activity [26]: 100%; residual activity [27]: 100%; residual activity [28]: 85%; inhibition [29]: 85.4%; residual activity [30]: 100%; residual activity [31]: 100%; residual activity [32]: 100%; residual activity [33]: 100%; residual activity [34]: 100%; residual activity [35]: 100%; residual activity [36]: 97%; residual activity [37]: 100%; residual activity [38]: 100%
Cc1c(C(=O)O)cc(-c2ccc(C3CCNCC3)cc2)c2ccc(-c3ccc(C(F)(F)F)cc3)cc12 [PPTN-NC],98,100,100,100,100,86,23.4,19.3,100,94,98,100,25.4,100,100,100,100,100,84,100,residual activity [21]: 100%; residual activity [22]: 100%; residual activity [23]: 100%; residual activity [24]: 100%; residual activity [25]: 100%; residual activity [26]: 100%; residual activity [27]: 100%; residual activity [28]: 91%; inhibition [29]: 79%; residual activity [30]: 100%; residual activity [31]: 100%; residual activity [32]: 100%; residual activity [33]: 100%; residual activity [34]: 85%; residual activity [35]: 100%; residual activity [36]: 100%; residual activity [37]: 100%; residual activity [38]: 100%
